Source: US10221163B2 (priority 2015, dated 2019)
Where two headings read alike, the source gives them in different places.

Assays:
[1] = tested on: Pseudomonas aeruginosa MB9798 vs MB9799; settings: ratio MITC95 PA_9798/MITC95 PA_9799
Method in brief: (§1)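 Microbroth MIC tests in PAO1-background strains with fixed imipenem and/or ceftazidime, usually at the CLSI breakpoint, plus fixed class A/C β-lactamase inhibitor against AmpC. MBL inhibitor titrated; concentration restoring susceptibility recorded and compared as fold difference between efflux+ MB9798 and efflux− MB9799.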

[2] = tested on: Pseudomonas aeruginosa efflux− (MB9799), IMP-1; format: cell-based; settings: concentration restoring susceptibility to imipenem at 2 μg/mL in the presence of a class A, C, D serine β-lactamase inhibitor closely related to relebactam
Method in brief: as §1

[3] = tested on: Serratia marcescens expressing IMP-1 (CL5741); format: cell-based; settings: with imipenem 1 μg/ml; 95% inhibition of bacterial growth
Method in brief: (§2)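 Clinical strains grown overnight on blood agar at 35°C, colonies suspended in saline, diluted 1:100 into 1.1×CAMHB. Test compound titrated with imipenem at 1 μg/ml; incubated 22–24 h at 35°C, growth read by absorbance.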

[4] = tested on: Klebsiella pneumoniae expressing VIM-1 (IHMA599644); format: cell-based; settings: with imipenem 1 μg/ml; 95% inhibition of bacterial growth
Method in brief: as §2

[5] = tested on: Escherichia coli expressing NDM-1 (CLB30005, CLB30016); format: cell-based; settings: with imipenem 1 μg/ml; 95% inhibition of bacterial growth
Method in brief: as §2

[6] = tested on: Pseudomonas aeruginosa efflux+ (MB9798), IMP-1; format: cell-based; settings: concentration restoring susceptibility to imipenem at 2 μg/mL in the presence of a class A, C, D serine β-lactamase inhibitor closely related to relebactam
Method in brief: as §1

IMP-1 = IMP-1 (Serratia marcescens, UniProt P52699); experiment: biochemical; format: biochemical; settings: fluorescence assay, CCF2-FA substrate, 2 pM enzyme, 2 hours at 25° C.; read-out: IMP-1 IC50
Method in brief: (§3)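 Class B activity is measured in the presence of compound by fluorescence with CCF2-FA after a 2-hour incubation at 25° C. IC50 is taken from a 4-parameter fit of semi-logarithmic dose-response data.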

NDM-1 = NDM-1 (Klebsiella pneumoniae, UniProt C7C422); experiment: biochemical; format: biochemical; settings: fluorescence assay, CCF2-FA substrate, 1 pM enzyme, 2 hours at 25° C.; read-out: NDM-1 IC50
Method in brief: as §3

VIM-1 = VIM-1 (Pseudomonas aeruginosa (strain ATCC 15692 / DSM 22644 / CIP 104116 / JCM 14847 / LMG 12228 / 1C / PRS 101 / PAO1), UniProt A0A0F7KYQ8); experiment: biochemical; settings: CCF2-FA substrate, 30 pM enzyme, 2 hours at 25° C.
Method in brief: as §3

[7] = fluorescence assay, read-out: VIM-1 IC50

Chain of IMP-1 (P52699 whole entry, looked up, species assumed): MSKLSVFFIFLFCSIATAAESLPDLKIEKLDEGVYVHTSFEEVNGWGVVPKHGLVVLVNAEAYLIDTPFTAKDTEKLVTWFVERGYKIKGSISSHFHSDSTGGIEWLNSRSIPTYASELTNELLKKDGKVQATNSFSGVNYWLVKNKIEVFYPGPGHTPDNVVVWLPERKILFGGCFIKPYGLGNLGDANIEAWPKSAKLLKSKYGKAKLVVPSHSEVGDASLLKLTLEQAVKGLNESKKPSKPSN
Chain of NDM-1 (C7C422 whole entry, looked up, species assumed): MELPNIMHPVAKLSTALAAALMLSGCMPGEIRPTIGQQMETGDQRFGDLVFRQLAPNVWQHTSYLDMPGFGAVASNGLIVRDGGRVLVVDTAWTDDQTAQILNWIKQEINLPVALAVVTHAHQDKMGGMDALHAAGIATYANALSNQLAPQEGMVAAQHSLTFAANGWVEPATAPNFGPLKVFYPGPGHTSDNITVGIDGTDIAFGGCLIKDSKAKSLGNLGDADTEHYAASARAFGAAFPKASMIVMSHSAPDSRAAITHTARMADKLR

CS(=O)(=O)Nc1nc2c(-c3ccc(S(=O)(=O)N4CCNCC4)c(S(N)(=O)=O)c3-c3nn[nH]n3)cccc2s1 [Example 156, 3-(2-(Methylsulfonamido)benzo[d]thiazol-4-yl)-6-(piperazin-1-ylsulfonyl)-2-(2H-tetrazol-5-yl)benzenesulfonamide]
Efflux ratio [1]: 2.00 | P. aeruginosa expressing IMP-1, efflux − (MB9799) MITC95 [2]: 6.25 µM | Serratia marcescens expressing IMP-1 (CL5741) MITC95 [3]: 12.5 µM | Klebsiella pneumoniae expressing VIM-1 (IHMA599644) MITC95 [4]: 25 µM | Escherichia coli expressing NDM-1 (CLB30016) MITC95 [5]: 6.25 µM | P. aeruginosa expressing IMP-1, efflux + (MB9798) MITC95 [6]: 12.5 µM | IC50 (IMP-1): 0.898 nM | IC50 (NDM-1): 0.29 nM | IC50 (VIM-1; [7]): 1.74 nM

Nc1nc2cccc(-c3ccc(S(=O)(=O)N4CCNCC4)c(S(N)(=O)=O)c3-c3nn[nH]n3)c2[nH]1 [Example 157, 3-(2-amino-3H-benzo[d]imidazol-4-yl)-6-(piperazin-1-ylsulfonyl)-2-(2H-tetrazol-5-yl)benzenesulfonamide]
Efflux ratio [1]: 4.00 | P. aeruginosa expressing IMP-1, efflux − (MB9799) MITC95 [2]: 0.4453 µM | Serratia marcescens expressing IMP-1 (CL5741) MITC95 [3]: 0.8906 µM | Klebsiella pneumoniae expressing VIM-1 (IHMA599644) MITC95 [4]: 1.281 µM | Escherichia coli expressing NDM-1 (CLB30016) MITC95 [5]: 0.125 µM | P. aeruginosa expressing IMP-1, efflux + (MB9798) MITC95 [6]: 1.781 µM | IC50 (IMP-1): 3.09 nM | IC50 (NDM-1): 0.32 nM | IC50 (VIM-1; [7]): 0.827 nM

Cn1c(N)nc2c(-c3ccc(S(=O)(=O)N4CCNCC4)c(S(N)(=O)=O)c3-c3nn[nH]n3)cccc21 [Example 158, 3-(2-amino-1-methyl-1H-benzo[d]imidazol-4-yl)-6-(piperazin-1-ylsulfonyl)-2-(2H-tetrazol-5-yl)benzenesulfonamide]
Efflux ratio [1]: 3.51 | P. aeruginosa expressing IMP-1, efflux − (MB9799) MITC95 [2]: 0.8906 µM | Serratia marcescens expressing IMP-1 (CL5741) MITC95 [3]: 0.8906 µM | Klebsiella pneumoniae expressing VIM-1 (IHMA599644) MITC95 [4]: 1.781 µM | Escherichia coli expressing NDM-1 (CLB30016) MITC95 [5]: 0.25 µM | P. aeruginosa expressing IMP-1, efflux + (MB9798) MITC95 [6]: 3.125 µM | IC50 (IMP-1): 1.71 nM | IC50 (NDM-1): 0.601 nM | IC50 (VIM-1; VIM-1 IC50, fluorescence assay): 1.27 nM

Nc1nc2c(-c3ccc(S(=O)(=O)N4CCNCC4)c(S(N)(=O)=O)c3-c3nn[nH]n3)cccc2o1 [Example 159, 3-(2-aminobenzo[d]oxazol-4-yl)-6-(piperazin-1-ylsulfonyl)-2-(2H-tetrazol-5-yl)benzenesulfonamide]
Efflux ratio [1]: 2.00 | P. aeruginosa expressing IMP-1, efflux − (MB9799) MITC95 [2]: 1.563 µM | Serratia marcescens expressing IMP-1 (CL5741) MITC95 [3]: 1.563 µM | Klebsiella pneumoniae expressing VIM-1 (IHMA599644) MITC95 [4]: 3.125 µM | Escherichia coli expressing NDM-1 (CLB30016) MITC95 [5]: 1.563 µM | P. aeruginosa expressing IMP-1, efflux + (MB9798) MITC95 [6]: 3.125 µM | IC50 (IMP-1): 1.29 nM | IC50 (NDM-1): 0.195 nM | IC50 (VIM-1; [7]): 0.51 nM

NS(=O)(=O)c1c(S(=O)(=O)N2CCNCC2)ccc(-c2cccc3cn[nH]c23)c1-c1nnn[nH]1 [Example 160, 3-(1H-indazol-7-yl)-6-(piperazin-1-ylsulfonyl)-2-(1H-tetrazol-5-yl)benzenesulfonamide]
Efflux ratio [1]: 4.00 | P. aeruginosa expressing IMP-1, efflux − (MB9799) MITC95 [2]: 1.563 µM | Serratia marcescens expressing IMP-1 (CL5741) MITC95 [3]: 1.563 µM | Klebsiella pneumoniae expressing VIM-1 (IHMA599644) MITC95 [4]: 3.125 µM | Escherichia coli expressing NDM-1 (CLB30016) MITC95 [5]: 3.125 µM | P. aeruginosa expressing IMP-1, efflux + (MB9798) MITC95 [6]: 6.25 µM | IC50 (IMP-1): 1.39 nM | IC50 (NDM-1): 0.599 nM | IC50 (VIM-1; [7]): 1.07 nM

Nc1nc2c(-c3ccc(S(=O)(=O)N[C@@H]4CCNC4)c(S(N)(=O)=O)c3-c3nn[nH]n3)cccc2[nH]1 [Example 161, 4-(2-amino-1H-benzo[d]imidazol-4-yl)-N^1—((R)-pyrrolidin-3-yl)-3-(2H-tetrazol-5-yl)benzene-1,2-disulfonamide]
Efflux ratio [1]: 0.78 | P. aeruginosa expressing IMP-1, efflux − (MB9799) MITC95 [2]: 0.5139 µM | Serratia marcescens expressing IMP-1 (CL5741) MITC95 [3]: 0.5295 µM | Klebsiella pneumoniae expressing VIM-1 (IHMA599644) MITC95 [4]: 0.8542 µM | Escherichia coli expressing NDM-1 (CLB30016) MITC95 [5]: 0.2995 µM | P. aeruginosa expressing IMP-1, efflux + (MB9798) MITC95 [6]: 0.3993 µM | IC50 (IMP-1): 0.401 nM | IC50 (NDM-1): 0.0314 nM | IC50 (VIM-1; [7]): 0.106 nM

Nc1nc2c(-c3ccc(S(=O)(=O)N[C@H]4CCNC4)c(S(N)(=O)=O)c3-c3nn[nH]n3)cccc2[nH]1 [Example 162, 4-(2-amino-1H-benzo[d]imidazol-4-yl)-N^1-((S)-pyrrolidin-3-yl)-3-(2H-tetrazol-5-yl)benzene-1,2-disulfonamide]
Efflux ratio [1]: 0.87 | P. aeruginosa expressing IMP-1, efflux − (MB9799) MITC95 [2]: 0.4922 µM | Serratia marcescens expressing IMP-1 (CL5741) MITC95 [3]: 0.5573 µM | Klebsiella pneumoniae expressing VIM-1 (IHMA599644) MITC95 [4]: 0.9844 µM | Escherichia coli expressing NDM-1 (CLB30016) MITC95 [5]: 0.3203 µM | P. aeruginosa expressing IMP-1, efflux + (MB9798) MITC95 [6]: 0.4271 µM | IC50 (IMP-1): 0.733 nM | IC50 (NDM-1): 0.0607 nM | IC50 (VIM-1; [7]): 0.154 nM

Cn1c(N)nc2c(-c3ccc(S(=O)(=O)N[C@H]4CCNC4)c(S(N)(=O)=O)c3-c3nn[nH]n3)cccc21 [Example 163, 4-(2-amino-1-methyl-1H-benzo[d]imidazol-4-yl)-N^1-((S)-pyrrolidin-3-yl)-3-(2H-tetrazol-5-yl)benzene-1,2-disulfonamide]
Efflux ratio [1]: 1.00 | P. aeruginosa expressing IMP-1, efflux − (MB9799) MITC95 [2]: 0.7813 µM | Serratia marcescens expressing IMP-1 (CL5741) MITC95 [3]: 0.7813 µM | Klebsiella pneumoniae expressing VIM-1 (IHMA599644) MITC95 [4]: 0.7813 µM | Escherichia coli expressing NDM-1 (CLB30016) MITC95 [5]: 0.3906 µM | P. aeruginosa expressing IMP-1, efflux + (MB9798) MITC95 [6]: 0.7813 µM | IC50 (IMP-1): 0.45 nM | IC50 (NDM-1): 0.0605 nM | IC50 (VIM-1; [7]): 0.118 nM

Cn1c(N)nc2c(-c3ccc(S(=O)(=O)N[C@@H]4CCNC4)c(S(N)(=O)=O)c3-c3nn[nH]n3)cccc21 [Example 164, 4-(2-amino-1-methyl-1H-benzo[d]imidazol-4-yl)-N^1-((R)-pyrrolidin-3-yl)-3-(2H-tetrazol-5-yl)benzene-1,2-disulfonamide]
Efflux ratio [1]: 1.00 | P. aeruginosa expressing IMP-1, efflux − (MB9799) MITC95 [2]: 0.7813 µM | Serratia marcescens expressing IMP-1 (CL5741) MITC95 [3]: 0.7813 µM | Klebsiella pneumoniae expressing VIM-1 (IHMA599644) MITC95 [4]: 0.7813 µM | Escherichia coli expressing NDM-1 (CLB30016) MITC95 [5]: 0.3906 µM | P. aeruginosa expressing IMP-1, efflux + (MB9798) MITC95 [6]: 0.7813 µM | IC50 (IMP-1): 0.272 nM | IC50 (NDM-1): 0.0378 nM | IC50 (VIM-1; [7]): 0.105 nM

NC1CCC(c2ccc(S(N)(=O)=O)c(S(N)(=O)=O)c2-c2nnn[nH]2)CC1 (stereo not drawn) [Example 165, 4-(4-aminocyclohexyl)-3-(1H-tetrazol-5-yl)benzene-1,2-disulfonamide]
Efflux ratio [1]: 4.00 | P. aeruginosa expressing IMP-1, efflux − (MB9799) MITC95 [2]: 1.563 µM | Serratia marcescens expressing IMP-1 (CL5741) MITC95 [3]: 1.563 µM | Klebsiella pneumoniae expressing VIM-1 (IHMA599644) MITC95 [4]: 3.125 µM | Escherichia coli expressing NDM-1 (CLB30016) MITC95 [5]: 0.3906 µM | P. aeruginosa expressing IMP-1, efflux + (MB9798) MITC95 [6]: 6.25 µM | IC50 (IMP-1): 24.4 nM | IC50 (NDM-1): 17.7 nM | IC50 (VIM-1; VIM-1 IC50, fluorescence assay): 1.17 nM
